In ChEMBL document CHEMBL3507680, “University of Dundee, Gates Library screen for HepG2 cell viability” one finds cytotoxicity data, which are given here for 92 compounds.

This data set in a line: Human HepG2 cell viability assay in 384 well format. The format is toxicity, cell-based. Also on record: dose 125 nL, time 70.5 hour; cytotoxicity at 70.5 h: concentration not given beside the values. Conditions: HepG2 cells, read-out: Inhibition.

In the case of `CN1C(=O)CCCC12CCCN(C(=O)c1ccc3c(c1)OCO3)C2` (configuration not stated), the cytotoxicity at 70.5 h was -15.9%.
With `O=C(NCC1CC1)C1CCC2(CCN(C(=O)c3cccs3)CC2)O1` (configuration not stated), the cytotoxicity at 70.5 h was -15.2%.
The value for `COc1ccc(C(=O)N2CCCC3(CCCC(=O)N3C)C2)cc1` (configuration not stated) was -6.78%; that for `COc1ncccc1CN1C[C@@H]2C[C@@H](C(=O)NCC3CC3)N(C)[C@@H]2C1` was -12.2%; that for `Cn1cc(CN2CC[C@H]3[C@H]2CC(=O)N3Cc2ccncc2)cn1` was -15.4%.
With `CCN1CCOCC2(CCCN(C(=O)c3cnccn3)C2)C1` (configuration not stated), the cytotoxicity at 70.5 h is -14.9%.
As for `CC(C)NC(=O)CC1COC2(CCN(Cc3ccco3)CC2)C1` (configuration not stated), the figure is 18%; as for `CN1C(=O)CCCC12CCCN(C(=O)c1cccc(C(F)(F)F)c1)C2` (configuration not stated), -6.35%; as for `O=C([C@H]1CCCO1)N1CCC2(CCCN(CCOc3ccccc3)C2)C1` (some centres not stated), 20.8%.
Consider `O=C1COC2(CCN(C(=O)c3ccoc3)CC2)CN1Cc1cccnc1`, for which the cytotoxicity at 70.5 h was -6.92%.
As for `O=C(C1CCOCC1)N1CC[C@@H](O)[C@@H]1Cc1ccccc1`, the cytotoxicity at 70.5 h came to 1.56%.
Consider `CN(C)CCN1CCC2(CCN(C(=O)c3cccnc3)CC2)C1=O`, for which the cytotoxicity at 70.5 h is -4.08%.
Consider `CN1CC2(CCCCN2C(=O)c2ccsc2)CC1=O` (configuration not stated), for which the cytotoxicity at 70.5 h was found to be 5.12%.
Consider `O=C(C1CCCO1)N1CCC2(CC1)COCCN2CC1CC1` (configuration not stated), for which the cytotoxicity at 70.5 h came out at 2.48%.
Turning to `Cc1nc(N2CCCC2)nc2c1CN(C(=O)N(C)C)CC2`, the cytotoxicity at 70.5 h was -1.53%.
As to `COc1cc(CN2C[C@@H]3CNC(=O)[C@H](C)[C@@H]3C2)cc(OC)c1`, the cytotoxicity at 70.5 h is -9.46%.
Take `CN(CC1CC1)c1ccc2ccc(C(=O)NC3CCCCC3)cn12`: the cytotoxicity at 70.5 h was 12.9%.
Take `c1cncc(-c2ccc3c(c2)C2(CCNCC2)CC3)c1`: the cytotoxicity at 70.5 h came to 52.4%.
As for `CCN1C(=O)C2(CCOCC2)c2cc(NC(=O)COC)ccc21`, the cytotoxicity at 70.5 h was 14.9%.
The value for `COCC1CN(C(=O)c2cccc(C)n2)Cc2ncnn2C1` (configuration not stated) was 17.7%; that for `COCC1CN(C(=O)c2cnc(C)cn2)Cc2ncnn2C1` (configuration not stated) was 19%; that for `CN1CCN(C(=O)N2CCCC2)Cc2cccnc21` was -6.35%.
The value for `CCN1C(=O)C2(CCOCC2)c2cc(NC(=O)c3cnoc3C)ccc21` was -6.08%; that for `Cc1occc1C(=O)N1CCC2(CCN(Cc3nccs3)CC2)C1` was -5.43%.
In the case of `Cc1nc([C@@H]2C[C@@H]3CCN(Cc4cnn(C)c4)C[C@H]3O2)sc1C`, the cytotoxicity at 70.5 h is -5.41%.
The value for `Cn1cc(CN2CC[C@H]3C[C@@H](c4nc(C5CC5)cs4)O[C@@H]3C2)cn1` was 5.37%; that for `CN(C)C(=O)CO[C@@H]1CN(Cc2ccccc2)[C@@H]2CCCO[C@@H]21` was 6.93%.
The value for `O=C(O)c1ccc2c(c1)C1(CCCCC1)CN2C(=O)c1cccs1` was -4.48%.
As for `O=C(c1ccsc1)N1C[C@H]2CN(Cc3cccc(F)c3)C(=O)[C@H]2C1`, the cytotoxicity at 70.5 h is -1.45%.
As for `COCCC(=O)NCC1Cn2nnc(-c3cccc(F)c3)c2CO1` (configuration not stated), the cytotoxicity at 70.5 h is -0.67%.
In the case of `Cn1ccnc1CN1CC2(CCN(Cc3ccncc3)C2)C1`, the cytotoxicity at 70.5 h was -0.993%.
As to `Cc1nc(-c2nc(C(=O)N3CCOCC3)c3ccccn23)cn1C(C)C`, the cytotoxicity at 70.5 h was -5.18%.
The value for `Cc1cccc(CN2C[C@@H]3CN(C(=O)c4cnccn4)C[C@@H]3C2=O)c1` was -2.3%; that for `O=C(c1ccoc1)N1CCC2(C1)CN(c1nccs1)C2` was -2.55%.
As for `Cc1ccc2c(c1)CCC21CCN(CCO)CC1`, the figure is -1.71%; as for `COCC(=O)N1C[C@H]2CC[C@@]3(N=C(c4ccccc4)NC3=O)[C@H]2C1`, -3.3%; as for `O=C(N1CCCC1)N1C[C@H]2CC[C@@]3(N=C(c4ccccc4)NC3=O)[C@H]2C1`, 12.6%.
For the compound `Cc1cnc(C(=O)N2C[C@@H]3[C@@H](C2)OCC(=O)N3CC2CCCC2)cn1`, the cytotoxicity at 70.5 h came out at 15.5%.
As for `O=C(C1CCOC1)N1CCc2ncnc(-c3cccnc3)c2CC1` (configuration not stated), the figure is 15.9%; as for `CC(=O)N1[C@H](Cn2cncn2)C[C@@H]2CN(C(=O)NC3CC3)CC[C@@H]21`, 5.13%; as for `O=C(C1CCOC1)N1CCc2ncnc(C3CC3)c2CC1` (configuration not stated), 0.686%.
The value for `O=C(c1cnccn1)N1C[C@@H]2[C@@H](C1)OCC(=O)N2CC1CCCC1` was 1.12%; that for `CN1CCN(Cc2cn3c(n2)CN(C(=O)N2CCCC2)CC3)CC1` was 0.892%.
In the case of `CCOC(=O)N1CC2(CCNCC2)c2cc(Cl)ccc21`, the cytotoxicity at 70.5 h is -11.6%.
Turning to `CC(C)C[C@H](N)C(=O)N1CC2(CCNCC2)c2cc(Cl)ccc21`, the cytotoxicity at 70.5 h came to 3.38%.
Consider `CC[C@@H]1N(Cc2ccco2)CCC[C@]12CCC(=O)N2C`, for which the cytotoxicity at 70.5 h worked out at 12.7%.
For the compound `Cc1ccc(CN2CCC3(CC2)CC(CC(=O)NC(C)C)CO3)s1` (configuration not stated), the cytotoxicity at 70.5 h is -7.06%.
Turning to `O=C(CC1CC1)N1CCC2(CCCN(CCOc3ccccc3)C2)C1` (configuration not stated), the cytotoxicity at 70.5 h is -11.8%.
As to `CCOCC(=O)N1C[C@@H]2CCN(c3cnccn3)C[C@@H]2C1`, the cytotoxicity at 70.5 h was -3.75%.
Turning to `CC(C)CC(=O)N1C[C@@H]2CCN(c3cnccn3)C[C@@H]2C1`, the cytotoxicity at 70.5 h is -5.35%.
For the compound `CC(=O)N1CCN(Cc2ccc(F)cc2)CC2(CC(=O)N(C)C2)C1` (configuration not stated), the cytotoxicity at 70.5 h was found to be 23.3%.
Take `CCN1CCOCC12CCN(C(=O)C1CCC1)CC2`: the cytotoxicity at 70.5 h was found to be 14.1%.
As for `CC(=O)N1CCN(Cc2ccsc2)CC2(CC(=O)N(C)C2)C1` (configuration not stated), the figure is -12.2%; as for `Cc1cccc(CN2C(=O)CCC23CCN(C(=O)NC(C)C)CC3)n1`, -2.54%.
As to `CN1CCN(C)C2(CCN(Cc3ccsc3)CC2)C1=O`, the cytotoxicity at 70.5 h came to 16.8%.
For the compound `C[C@H]1C(=O)NC[C@H]2CN(Cc3cccc(F)c3)C[C@H]21`, the cytotoxicity at 70.5 h is -8.78%.
The value for `Cn1cc(CN2C[C@H]3CN(c4cncnc4)C(=O)[C@H]3C2)cn1` was -2.54%; that for `COc1ccc(CN2C[C@H]3CN(c4cncnc4)C(=O)[C@H]3C2)cc1` was -5.39%; that for `CN1CCN(C(=O)Cc2ccc(F)cc2)Cc2cccnc21` was 5.52%.
With `Cc1nc(CN2CCC3(CCN(C(=O)c4ccoc4C)CC3)C2)cs1`, the cytotoxicity at 70.5 h is -6.97%.
Turning to `Cc1cnc(C(=O)N2CCCn3c(nc(CN(C)C)cc3=O)C2)cn1`, the cytotoxicity at 70.5 h amounted to 9.93%.
For `CNC(=O)[C@H]1C[C@@H]2CN(S(=O)(=O)Cc3ccccc3)C[C@@H]2N1C`, the cytotoxicity at 70.5 h is -3.87%.
Consider `COc1ccc(CN2CCOC3(CCCN(C(C)=O)C3)C2)cc1` (configuration not stated), for which the cytotoxicity at 70.5 h is -1.06%.
For the compound `Cc1cnc(N2CC3(CCN(C(=O)c4cccnc4)C3)C2)nc1`, the cytotoxicity at 70.5 h is -4.83%.
In the case of `Cc1cccc(CN2C[C@@H]3CN(C(=O)c4ccsc4)C[C@@H]3C2=O)n1`, the cytotoxicity at 70.5 h is -2.24%.
For `O=C([C@@H]1COC[C@H]2CN(C3CCOCC3)C[C@H]21)N1CCCO1`, the cytotoxicity at 70.5 h was 14.5%.
As for `O=C1CC2(CCCCN2C(=O)c2ccco2)CN1c1cccnc1` (configuration not stated), the figure is 15.4%.
As for `Cn1cccc1C(=O)N1CCCCC12CC(=O)N(c1cccnc1)C2` (configuration not stated), the figure is -3.4%; as for `COc1cccc(CN2CCC3(CCN(C(=O)C4CC=CC4)CC3)C2)c1`, -3.83%; as for `CN(Cc1cccnc1)C1CC2(CCN(c3ncccn3)CC2)C1`, -15.1%.
Take `Cc1cccc(CN2C(=O)C[C@@H]3[C@@H]2CCN3Cc2ccsc2)n1`: the cytotoxicity at 70.5 h is -8.36%.
Take `CCN1CC2(CC1=O)CN(Cc1ccccn1)CCN(C(C)=O)C2` (configuration not stated): the cytotoxicity at 70.5 h was -10.2%.
For the compound `CC(C)C(=O)N1CCN(Cc2ccccn2)CC2(CC(=O)N(C)C2)C1` (configuration not stated), the cytotoxicity at 70.5 h was -9.37%.
As to `CN(C)CCN1C(=O)CCC12CCCN(C(=O)c1cccnc1)CC2` (configuration not stated), the cytotoxicity at 70.5 h is -5.29%.
As for `CN(C)CCN1CCC2(CCN(C(=O)c3ccncc3)CC2)C1=O`, the cytotoxicity at 70.5 h is -7.69%.
On to `CC(=O)N1CCN(Cc2ccncc2)CC2(CC(=O)N(C)C2)C1` (configuration not stated), for which the cytotoxicity at 70.5 h was -7.88%.
For `Cc1nc(CN2CCC3(CC2)NC(=O)CC3c2ccncc2)cs1` (configuration not stated), the cytotoxicity at 70.5 h is -5.12%.
The value for `Cc1ccc(CN2CCC3(CC2)C(=O)N(CC(C)C)CCN3C)s1` was 22.7%.
Consider `CCN1CCN(C)C2(CCN(Cc3ccsc3)CC2)C1=O`, for which the cytotoxicity at 70.5 h was -9.43%.
Turning to `Cc1noc(C)c1CN1CCC2(CC1)CN(c1ccccn1)CCO2`, the cytotoxicity at 70.5 h is 17.3%.
Turning to `CN1CCN(Cc2cccnc2)C2(CCN(c3ncccn3)C2)C1=O` (configuration not stated), the cytotoxicity at 70.5 h was -5.32%.
Take `Cc1cnc(N2CCC3(C2)C(=O)N(C)CCN3Cc2cccnc2)nc1` (configuration not stated): the cytotoxicity at 70.5 h is -5.14%.
`COc1ccc(CN2CCC3(CCN(c4cccnc4)C3=O)C2)cc1` (configuration not stated): the cytotoxicity at 70.5 h is 1.92%.
For the compound `c1cncc(COCc2nnc3n2CCN(CC2CC2)C3)c1`, the cytotoxicity at 70.5 h turned out to be 0.791%.
Turning to `Cc1ncsc1CN1CCO[C@H]2[C@H](Oc3ccccn3)CC[C@@H]21`, the cytotoxicity at 70.5 h is -1.48%.
Take `Fc1cccnc1O[C@@H]1CC[C@H]2[C@H]1OCCN2Cc1nccs1`: the cytotoxicity at 70.5 h is -2.76%.
For the compound `CN(C)[C@@H]1CCN(c2ncc(F)cn2)[C@H]1Cc1ccccc1`, the cytotoxicity at 70.5 h is -4.36%.
Consider `COCCC(=O)N1CCn2cc(CN3CCN(C)CC3)nc2C1`, for which the cytotoxicity at 70.5 h came to 0.542%.
For `Cc1cccc(CO[C@@H]2CC[C@H]3[C@H]2OCCN3Cc2nccs2)n1`, the cytotoxicity at 70.5 h was -0.937%.
For the compound `c1ccc(CN2CCCC3(CCN(Cc4cccs4)C3)C2)nc1` (configuration not stated), the cytotoxicity at 70.5 h was -7.54%.
As for `CN1CCN(Cc2cccnc2)C2(CCN(Cc3ccoc3)C2)C1=O` (configuration not stated), the cytotoxicity at 70.5 h was 20.4%.
For `COc1ncccc1CN1CCC2(CC1)CN(c1ccccn1)CCO2`, the cytotoxicity at 70.5 h was -6.12%.
